Results published in EP3685668B1, “COMPOSITION COMPRISING ACIBENZOLAR-S-METHYL AS EFFECTIVE INGREDIENT FOR CONTROLLING BURSAPHELENCHUS XYLOPHILUS DISEASE AND METHOD FOR CONTROLLING BURSAPHELENCHUS XYLOPHILUS USING SAME” (Industry Foundation of Chonnam National University, priority 2017, dated 2019).

How the values were obtained:
Test in all cases: qRT-PCR expression of induced resistance gene in pine tree callus
Type in all cases: cell-based
Extensin = details: concentration series
Experimental: (§1) For in vitro analysis of induced resistance, the expression of PR genes and other plant defense-related genes was determined, which are evolved in various defense mechanisms including induced resistance. The primers of sixteen induced resistance-related genes of pine tree used in this invention were listed in the below and elongation factor_1 alpha were used as a reference gene. [Table 4] The primer list of defense resistance-related genes
(§2) After the treatment with 200 µg / mℓ of candidates of the selected induced resistance material, expression of the induced resistance-related gene in pine callus was determined by qRT-PCR using the primer pairs of defense resistance-related genes in Table 4. As a candidate group of an induced resistance material in pine tree, acibenzolar-S-methyl (ASM), TDL (Tiadinil), ITL (Isotianil), PBZ (Probenzole), AZO (Azoxystrobin), VMA (Validamycin A), MeJA (Methyl jasmonate), BABA (DL-3-aminobutyric acid), 2,3-BDO (2,3-Butanediol), GABA (r-Aminobutyric acid), glucan (Glucan), ER (Ergosterol), and AZA (Azelaic acid) were used. For the in vitro analysis of the expression of induced resistance gene in pine callus, the selected induced resistance materials were applied with 500 µℓ of LM liquid medium on a surface of pine tree callus (100 mg) in 12-well microplate to give final concentration of 200 µg/mℓ. Then, the callus surface was sufficiently reacted for 24 hours with the candidate of pine tree induced resistance material by shaking at 50 rpm in a 25 °C shaking incubator under dark condition. RNAs were extracted from the callus after completion of the reaction with an induced resistance material, followed by synthesis of cDNAs. Then, by carrying out qRT-PCR, the expression of induced resistance genes was determined. [Table 5] Expression of induced resistance gene in pine tree callus by TDL, PBZ, ASM, ITL, AZO, VMA, glucan, and AZA
(§3) Based on the results of assay using young plants and gene expression by selected induce resistance materials, it seemed that acibenzolar-S-methyl had the most excellent effect. Thus, the following tests were carried out using acibenzolar-S-methyl only. Expression of the induced resistance genes at different culture time after the chemical treatment was examined. For the in vitro assay, LM medium containing pine tree callus was treated with acibenzolar-S-methyl at concentration of 200 µg / mℓ, followed by reaction for 1 day, 7 days, or 14 days in a 25°C shaking incubator under dark condition. RNAs were extracted from the callus after the reaction followed by synthesis of cDNAs. Then, by carrying out qRT-PCR, the expression of the induced resistance genes was determined. Depending on reaction time after the treatment, i.e., after 1 day, 7 days, or 14 days, the expression of the obtained induced resistance genes was examined. As a result of the in vitro callus assay depending on reaction time after the treatment with acibenzolar-S-methyl, the expression of the induced resistance-related genes is the highest at 1 day after the treatment with acibenzolar-S-methyl and gradually diminished over time, as it is shown in Table 7. In this regard, it is contemplated that the expression of genes acquired by acibenzolar-S-methyl is not maintained in highly expressed state until the pathogen invasion and just memorized with at minimum level so that the energy consumption by plant can be efficiently managed. [Table 7] Expression of induced resistance gene in pine tree callus by acibenzolar-S-methyl depending on reaction time
(§4) To have an in vitro assay according to different methods of treatment with acibenzolar-S-methyl, two separate treatment methods, i.e., surface treatment (spraying treatment) of pine tree callus and direct application of the induced resistance material to an LM medium containing pine tree callus, were performed. […]

PR_4 family = details: for Expression of induced resistance gene, PR_4 family: 24 hours
Experimental: as §1, §2, §3, §4

PR_1b family = details: 200 µg/mℓ; for Expression of induced resistance gene, PR_1b family: 24 hours
Experimental: as §1, §2, §3, §4

Metallothionein = details: for Expression of induced resistance gene, Metallothionein: 24 hours
Experimental: as §1, §2, §3, §4

PR_3 family class 4 = details: for Expression of induced resistance gene, PR_3 family class 4: 24 hours
Experimental: as §1, §2, §3, §4

PR_3 family class 1 = details: for Expression of induced resistance gene, PR_3 family class 1: 24 hours
Experimental: as §1, §2, §3, §4

Xyloglucan = details: 200 µg/mℓ; for Expression of induced resistance gene, Xyloglucan: 24 hours
Experimental: as §1, §2, §3, §4

Antipeptide = details: 200 µg/mℓ; for Expression of induced resistance gene, Antipeptide: 24 hours
Experimental: as §1, §2, §3, §4

[1] = 200 µg/mℓ, Direct supplying as a medium component
[2] = concentration series, 200 µg/mℓ
[3] = Direct supplying as a medium component

Structure (SMILES): CSC(=O)c1cccc2nnsc12 [ASM, acibenzolar-S-methyl]
- Gene expression level, Extensin (Extensin; 2 µg/mℓ): 0.9012
- Gene expression level, Extensin (Extensin; 20 µg/mℓ): 1.385
- Gene expression level, Extensin (Extensin; 200 µg/mℓ): 1.693
- Expression of induced resistance gene, PR_4 family (PR_4 family; 200 µg/mℓ): 2.6
- Expression of induced resistance gene, PR_4 family (PR_4 family; [1]): 5.46
- Expression of induced resistance gene, PR_4 family (PR_4 family; 200 µg/mℓ, Spraying): 2.6
- Gene expression level, PR_4 family (PR_4 family; 200 µg/mℓ, After 1 day): 5.46
- Gene expression level, PR_4 family (PR_4 family; 200 µg/mℓ, After 7 days): 0.74
- Gene expression level, PR_4 family (PR_4 family; 200 µg/mℓ, After 14 days): 0.2
- Gene expression level, PR_4 family (PR_4 family; concentration series, 2 µg/mℓ): 2.25
- Gene expression level, PR_4 family (PR_4 family; concentration series, 20 µg/mℓ): 2.056
- Gene expression level, PR_4 family (PR_4 family; [2]): 1.24
- Expression of induced resistance gene, PR_1b family (PR_1b family): 2
- Expression of induced resistance gene, PR_1b family (PR_1b family; [3]): 6.28
- Expression of induced resistance gene, PR_1b family (PR_1b family; Spraying): 2
- Gene expression level, PR_1b family (PR_1b family; After 1 day): 6.28
- Gene expression level, PR_1b family (PR_1b family; After 7 days): 0.72
- Gene expression level, PR_1b family (PR_1b family; After 14 days): 0.4
- Gene expression level, PR_1b family (PR_1b family; concentration series): 0.9395
- Expression of induced resistance gene, Metallothionein (Metallothionein; 200 µg/mℓ): 0.11
- Expression of induced resistance gene, Metallothionein (Metallothionein; [1]): 29.86
- Expression of induced resistance gene, Metallothionein (Metallothionein; 200 µg/mℓ, Spraying): 0.11
- Gene expression level, Metallothionein (Metallothionein; 200 µg/mℓ, After 1 day): 7.89
- Gene expression level, Metallothionein (Metallothionein; 200 µg/mℓ, After 7 days): 0.41
- Gene expression level, Metallothionein (Metallothionein; 200 µg/mℓ, After 14 days): 0.29
- Gene expression level, Metallothionein (Metallothionein; concentration series, 2 µg/mℓ): 0.5946
- Gene expression level, Metallothionein (Metallothionein; concentration series, 20 µg/mℓ): 0.79
- Gene expression level, Metallothionein (Metallothionein; [2]): 0.9266
- Expression of induced resistance gene, PR_3 family class 4 (PR_3 family class 4; 200 µg/mℓ): 3.86
- Expression of induced resistance gene, PR_3 family class 4 (PR_3 family class 4; [1]): 11.96
- Expression of induced resistance gene, PR_3 family class 4 (PR_3 family class 4; 200 µg/mℓ, Spraying): 3.86
- Gene expression level, PR_3 family class 4 (PR_3 family class 4; 200 µg/mℓ, After 1 day): 11.96
- Gene expression level, PR_3 family class 4 (PR_3 family class 4; 200 µg/mℓ, After 7 days): 7.67
- Gene expression level, PR_3 family class 4 (PR_3 family class 4; 200 µg/mℓ, After 14 days): 0.86
- Gene expression level, PR_3 family class 4 (PR_3 family class 4; concentration series, 2 µg/mℓ): 32.22
- Gene expression level, PR_3 family class 4 (PR_3 family class 4; concentration series, 20 µg/mℓ): 42.52
- Gene expression level, PR_3 family class 4 (PR_3 family class 4; [2]): 24.93
- Expression of induced resistance gene, PR_3 family class 1 (PR_3 family class 1; 200 µg/mℓ): 2.04
- Expression of induced resistance gene, PR_3 family class 1 (PR_3 family class 1; [1]): 2.85
- Expression of induced resistance gene, PR_3 family class 1 (PR_3 family class 1; 200 µg/mℓ, Spraying): 2.04
- Gene expression level, PR_3 family class 1 (PR_3 family class 1; 200 µg/mℓ, After 1 day): 2.85
- Gene expression level, PR_3 family class 1 (PR_3 family class 1; 200 µg/mℓ, After 7 days): 1.38
- Gene expression level, PR_3 family class 1 (PR_3 family class 1; 200 µg/mℓ, After 14 days): 0.29
- Gene expression level, PR_3 family class 1 (PR_3 family class 1; concentration series, 20 µg/mℓ): 3.506
- Gene expression level, PR_3 family class 1 (PR_3 family class 1; [2]): 3.605
- Expression of induced resistance gene, Xyloglucan (Xyloglucan): 2.36
- Expression of induced resistance gene, Xyloglucan (Xyloglucan; [3]): 17.51
- Expression of induced resistance gene, Xyloglucan (Xyloglucan; Spraying): 2.36
- Gene expression level, Xyloglucan (Xyloglucan; After 1 day): 29.86
- Gene expression level, Xyloglucan (Xyloglucan; After 7 days): 2.81
- Gene expression level, Xyloglucan (Xyloglucan; After 14 days): 1.06
- Gene expression level, Xyloglucan (Xyloglucan; concentration series): 37.01
- Expression of induced resistance gene, Antipeptide (Antipeptide): 1.83
- Expression of induced resistance gene, Antipeptide (Antipeptide; [3]): 7.21
- Expression of induced resistance gene, Antipeptide (Antipeptide; Spraying): 1.83
- Gene expression level, Antipeptide (Antipeptide; After 1 day): 10.63
- Gene expression level, Antipeptide (Antipeptide; After 7 days): 1.28
- Gene expression level, Antipeptide (Antipeptide; After 14 days): 0.58
- Gene expression level, Antipeptide (Antipeptide; concentration series): 5.352
